Here are results for 66 compounds from PubChem BioAssay AID1159558 (GlaxoSmithKline (GSK), 2015).

One may read the IC50 as the point on the concentration scale where inhibition reaches its midpoint.

Active and inactive are the calls of the source.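 Rule for the calls: active = IC50 against T. cruzi CYP51 below a set limit; inactive = the rest.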

Sequence of Sterol 14-alpha demethylase (Trypanosoma cruzi (strain CL Brener)) (Q7Z1V1 whole entry, looked up): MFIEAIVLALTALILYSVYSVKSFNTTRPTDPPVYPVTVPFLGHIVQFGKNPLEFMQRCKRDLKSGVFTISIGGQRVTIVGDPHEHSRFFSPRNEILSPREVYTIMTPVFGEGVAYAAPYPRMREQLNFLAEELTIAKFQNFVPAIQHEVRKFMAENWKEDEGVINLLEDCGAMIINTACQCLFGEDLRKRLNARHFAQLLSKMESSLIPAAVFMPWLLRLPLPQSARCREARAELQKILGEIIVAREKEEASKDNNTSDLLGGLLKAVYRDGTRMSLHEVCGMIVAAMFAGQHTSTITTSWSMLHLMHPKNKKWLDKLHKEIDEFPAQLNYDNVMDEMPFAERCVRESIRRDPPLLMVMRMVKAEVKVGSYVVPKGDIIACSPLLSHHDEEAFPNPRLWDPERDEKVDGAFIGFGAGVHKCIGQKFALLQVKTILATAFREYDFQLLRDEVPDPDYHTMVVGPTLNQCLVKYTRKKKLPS

This test has as its target Sterol 14-alpha demethylase (Trypanosoma cruzi (strain CL Brener)) (UniProt Q7Z1V1). Nature of the test: TcCYP51 inhibitors, dose response, mechanism study for T. cruzi antiparasitic project, biochemical, recombinant enzyme (AID 1159558).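 Note: enzyme in bacterial membranes with Anopheles gambiae CYP reductase and cytochrome b5 partners.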 The settings on record: recombinant T. cruzi CYP51, BOMCC fluorescence.
Turning to `O=C(Nc1nc(-c2ccc(F)cc2)cs1)c1ccc([N+](=O)[O-])s1`, the IC50 is 50 µM.
The value for `CNS(=O)(=O)c1ccccc1Nc1nc(Nc2ccnn2C)ncc1Cl` was 32 µM; that for `Oc1c(-c2n[nH]c(CCc3ccccc3)n2)ncc2cccnc12` was > 100 µM (inactive).
The value for `O=C(c1cnn(-c2ccccc2)n1)N1CCCC(n2ccnc2)C1` (stereo unspecified) was 0.079 µM.
The value for `O=C(NCC(c1cccnc1)N1CCc2ccccc2C1)C(=O)Nc1cccc(Cl)c1` (stereo unspecified) was 0.063 µM; that for `NC(=O)c1ccccc1Nc1nc(NC2CCCCC2)nc2[nH]ccc12` was > 100 µM (inactive); that for `O=C(N[C@H](CO)c1ccccc1)c1ccc(-c2c[nH]c3nccc(C(F)(F)F)c23)s1` was 6.3 µM.
Turning to `CC(C)n1c(-c2nonc2N)nc2cccc(OCCN3CCCC3)c21`, the IC50 was 40 µM.
Then `COc1ccc(C(=O)NC2CCN(CCn3c(=O)ccc4ncc(F)cc43)CC2)cc1Cl`, with 16 µM; and `O=C(NCCc1nc(-c2ccc(F)c(F)c2)n[nH]1)C1CCCCC1`, with 25 µM.
Regarding `CN(Cc1ccc(C(N)=O)cc1)C(c1ccc(F)cc1)c1cccnc1` (stereo unspecified), the half-maximal inhibitory concentration (IC50) was 0.1 µM.
On to `Cc1cc(Oc2cc(Cl)c(Cl)cc2Cl)n2ncnc2n1`, for which the IC50 was > 100 µM (inactive).
Regarding `O=C(c1ccc(OCCCc2cnc[nH]2)cc1)C1CC1`, the IC50 was 0.05 µM.
Then `COc1ccc(NC(=O)c2ccc(NC(=O)CN(c3ccccc3C)S(C)(=O)=O)cc2)cc1`, with 6.3 µM; and `Cc1ccc2sc(NC(=O)Cn3cnc([N+](=O)[O-])n3)nc2c1`, with > 100 µM (inactive); and `Cc1cc(C)cc(NS(=O)(=O)c2cc(-c3cc(C)[nH]n3)ccc2C)c1`, with 7.9 µM.
The value for `COc1ccc(Nc2nc(-c3ccccn3)cs2)c(OC)c1` was 20 µM.
Then `Cn1nc([N+](=O)[O-])nc1Oc1ccc(C(=O)c2ccccc2)cc1`, with > 100 µM (inactive); and `COc1cc(F)c2ncc(F)c(CCN3CC[C@H](NCc4cc5c(cn4)OCS5)[C@@H](O)C3)c2c1`, with 32 µM.
Consider `COc1ccc([N+](=O)[O-])cc1NC(=O)Nc1cccc(Cl)c1`, for which the IC50 was > 100 µM (inactive).
Then `COc1cc(-c2noc(CC#N)n2)ccc1OC(F)F`, with 100 µM.
The value for `N#Cc1ccc(S(=O)(=O)N2CCC3(CCN(c4ccccc4)C3=O)CC2)cc1` was > 100 µM (inactive); that for `C=CCN(Cc1cccs1)C(=O)CSc1nnc(-c2ccc3c(c2)OCO3)o1` was 7.9 µM; that for `Cc1nc2c(-c3ncn[nH]3)cc(NC(=O)Cc3ccccc3)cn2c1C` was 10 µM.
Then `OC1CCC(Nc2nccc(-c3sc(C4CCOCC4)nc3-c3ccc(F)c(F)c3)n2)CC1` (stereo unspecified), with > 100 µM (inactive); and `Cc1cccc(NS(=O)(=O)c2cnc3sc(C)cn3c2=O)c1`, with > 100 µM (inactive); and `O=C(Nc1nc(-c2ccccn2)cs1)c1ccc(S(=O)(=O)N2CCCCC2)cc1`, with 6.3 µM.
With `O=C(c1cccc(Nc2ncc(-c3ccc4c(c3)OCO4)cn2)c1)N1CCSC1`, the IC50 is 16 µM.
Then `CCNc1cc(-c2ccccn2)nc(Nc2ccccc2)n1`, with > 100 µM (inactive).
Then `CC(C)(C)C(O)(CCc1ccc(Cl)cc1)Cn1cncn1` (stereo unspecified), with 0.13 µM; and `CCCc1cc(C(=O)Nc2ncc(-c3cccc(Br)c3)n2C)n[nH]1`, with 25 µM; and `CCCCn1nnnc1CSc1nc(C)cc(C)c1C#N`, with 50 µM.
Then `COc1ccc(Nc2nc(NC3CCC(O)CC3)ncc2Br)c(C(N)=O)c1` (stereo unspecified), with 13 µM; and `O=C(CSc1nnc(-c2ccc3c(c2)OCO3)o1)N(Cc1ccco1)CC(F)(F)F`, with 25 µM; and `O=c1ccn(-c2ccc([N+](=O)[O-])cc2Cl)c2ccc(F)cc12`, with 16 µM.
With `CCC(=O)Nc1ccc(C(=O)Nc2ccccc2-c2ccccc2)cc1`, the IC50 is > 100 µM (inactive).
The value for `Cc1nc(C(=O)Nc2ccc3c(c2)OCO3)nn1-c1ccc(Cl)cc1` was 32 µM; that for `COc1ccccc1C1CC(c2ccc(NS(C)(=O)=O)cc2)=NN1C(=O)c1cccs1` (stereo unspecified) was 25 µM.
Then `COc1cnc2ccc(=O)n(CCN3CCC(NC/C=C/c4cc(F)ccc4F)CC3)c2c1`, with 16 µM.
The value for `Cc1nc(-c2ccc3c(c2)OCO3)sc1C(=O)NCc1ccc2c(c1)OCO2` was 5 µM; that for `O=C(NCCNc1noc(-c2ccc([N+](=O)[O-])cc2)n1)c1ccc(Cl)cc1` was > 100 µM (inactive); that for `Cc1nc2c(-c3cccs3)c(C)nn2c(NCCO)c1C` was > 100 µM (inactive).
`Cc1ccc(Nc2nc(-c3ccccn3)cc(N3CCCC(O)C3)n2)cc1` (stereo unspecified): the IC50 was 25 µM.
The value for `Cc1[nH]c2ccccc2c(=O)c1Cc1c(C)[nH]c2ccccc2c1=O` was > 100 µM (inactive).
The value for `O=C(NC1CCN(C2Cc3ccc(NS(=O)(=O)c4cc(F)cc(F)c4)cc3C2)CC1)C1CC1` (stereo unspecified) was 50 µM; that for `COC(=O)c1ccc(-c2cnc3ccc(NCc4ccccn4)nn23)cc1` was 1.3 µM.
With `CC1(C)CCC(=Cc2ccc(Cl)cc2)CC1(O)Cn1ccnc1` (stereo unspecified), the IC50 was 0.05 µM.
With `O=C(CCc1ccc(-c2ccccc2)o1)N1CCN(c2ccc(O)cc2)CC1`, the IC50 is 2.5 µM.
Then `NC(=O)c1cc(NC(=O)c2ccccc2COc2ccccc2)ccc1Cl`, with 79 µM.
Consider `CN(Cc1cccnc1)Cc1ccc(N2CCN(C(=O)C3(c4ccc(Cl)cc4)CC3)CC2)nc1`, for which the IC50 was 0.16 µM.
Then `CC(CNS(=O)(=O)c1ccc(OC(F)F)cc1)c1ccc(NC(=O)c2ccncc2)cc1` (stereo unspecified), with 0.05 µM.
`CN(C)c1ccc(N)cc1CN(CC1CCCO1)S(C)(=O)=O` (stereo unspecified): the IC50 was > 100 µM (inactive).
Then `CC(C)C[C@H](NC(=O)c1ccc(-c2ccccc2)o1)C(=O)NC1(C#N)CC1`, with > 100 µM (inactive); and `Cc1cc(NC(=O)C2CC2)ccc1OC1CCN(Cc2ccco2)CC1`, with 63 µM; and `CCC1Oc2cc(S(=O)(=O)N(C)CC(=O)N3CCc4ccccc4C3)c(C)cc2NC1=O` (stereo unspecified), with 0.79 µM.
With `COc1cnc2ccc(=O)n(CCN3CCC(NC(=O)c4ccc(Cl)cc4)CC3)c2c1`, the 50% inhibitory concentration (IC50) was 10 µM.
On to `Nc1nccc(-c2csc(Nc3ccc(Cl)cc3)n2)n1`, for which the IC50 is 1.3 µM.
Then `O=C1c2cnc(N3CCCC3)nc2CN1c1ccc2c(c1)OCO2`, with > 100 µM (inactive); and `Cc1ccc(NC(=O)c2ccnc(N3CCCC3)c2)cc1-c1cc(C(N)=O)ccc1C`, with 4 µM.
Then `COCc1cc(Nc2ccccc2)nc(-c2ccccn2)n1`, with > 100 µM (inactive); and `Cc1ccc(C)c(-n2nnnc2Sc2nc([N+](=O)[O-])nn2C)c1`, with > 100 µM (inactive); and `COc1ccc(Cc2nc(-c3ncc4cccnc4c3O)n[nH]2)cc1OC`, with > 100 µM (inactive).
Consider `N#Cc1c(Oc2cccc(Cl)c2)cccc1[N+](=O)[O-]`, for which the IC50 is > 100 µM (inactive).
Turning to `Cn1nccc1-c1cc(OC(CN)c2ccccc2)cnc1-c1ccco1` (stereo unspecified), the IC50 was 0.063 µM.
The value for `Cc1ccc(S(=O)(=O)Nc2ccc(CN3CCN(C(=O)c4cccc(C)c4)CC3)cc2)cc1` was 79 µM; that for `Cc1nc(N2CC(C)OC(C)C2)sc1C(=O)Nc1ccc2c(c1)OCO2` (stereo unspecified) was 40 µM.
